Experimental data from patent US20130165368A1, “ANTIMICROBIAL COMPOUNDS” (priority 2010, published 2013).
In brackets after ≈: the same amount, converted by molar mass. Read-outs that look alike come from different tables or passages of the source.

What was measured:
Type in all cases: cell-based
[1] = system: Staphylococcus aureus; experiment: MIC agar dilution, micro-organism 13 (6571); conditions: Staphylococcus aureus 6571, read-out: MIC
Method in brief: (§1)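 Agar dilution in Isosensitest/CCEY agar with egg yolk and lysed horse blood; compounds as aqueous emulsions (myristyl and lauryl alcohol with 1-methyl-2-pyrrolidone and Tween 20). 1 µL spots of 1/15-diluted 0.5 McFarland suspensions, 37 °C aerobic, read at 22 and 48 h; MIC (mmol/L) is lowest concentration giving <10 colonies.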

[2] = system: Bacillus subtilis; experiment: MIC agar dilution, micro-organism 18 (9372); conditions: Bacillus subtilis 9372, read-out: MIC
Method in brief: as §1

[3] = system: Enterococcus faecalis (VRE) MB 1969; experiment: MIC agar dilution, VRE strain 27
Experimental: (§2) Molar equivalent concentrations were used to allow comparison between compounds of differing molecular mass. Due to weighing difficulties, any compound in solid form was melted in a water bath prior to dilution. To make ten-times strength concentrations, which takes into account agar dilution, 0.0352 mmol of each compound was weighed into plastic universal bottles and 4 mL of sterile distilled water (SDW) was added. To produce a homogenous emulsion the universals were vortexed; once achieved the emulsions were serial diluted by adding 2 mL to 2 mL of SDW.
(§3) For every 100 mL of Isosensitest agar (IST) (CM0471; Oxoid, Basingstoke, England), 3.1 g of the IST powder was added to 100 mL SDW (as per manufacturer's instructions) and sterilised for 15 minutes at 121° C. Once sterilised, the molten agar was cooled to 50° C. in a water-bath. Subsequently 4.8 g of CCEY powder (BC2160; Bioconnections, Wetherby, England), also known as Brazier's medium, was added to 100 mL SDW for every 100 mL of agar needed. This was then sterilised for 15 minutes at 121° C. Once sterilised the molten agar was cooled to 50° C. in a water-bath and 4 mL of egg-yolk emulsion (S2073; TCS Biosciences Ltd, Buckingham, United Kingdom) and 1 mL of lysed defibrinated horse blood (HB035; TCS Biosciences Ltd, Buckingham, United Kingdom) were also added for every 100 mL needed. Horse blood lysis is achieved by dilution to half concentration with SDW; when fully lysed the mixture will turn dark red in colour.
(§4) 18 mL agar was added to each universal and then poured into sterile Petri dishes. This step creates a 1/10 dilution resulting in agar plates of the required strength. Control plates for each set of strains were created by adding 18 mL of agar to 2 mL of SDW.
(§5) Suspensions of each bacterial species were prepared with a density equal to that of a 0.5 McFarland standard using a densitometer. All suspensions were made using sterile distilled water and fresh 18-20 hour cultures. As a 0.5 McFarland standard contains 1.5×10^8 CFU/mL and the multipoint inoculators applies 1 μL spots of liquid, each bacterial suspension was diluted 1/15 (20 μL suspension to 280 μL sterile distilled water).
(§6) Bacterial suspensions were prepared from fresh 18-24 hour cultures as previously described. 1 μL of each strain was inoculated onto all 100 agar plates containing a different chemical concentration and the 2 control plates. This was done using a multipoint inoculator which inoculates 20 strains per plate. All plates were incubated for 22 hours at 37° C. in aerobic conditions.
(§7) Each plate was examined for bacterial growth after 22 and 48 hours, with each being incubated in between examinations. A positive result was recorded as growth of ≧10 colonies. A negative result was recorded as growth of <10 colonies as this is equivalent to 99.9% inhibition. The lowest concentration of chemical that inhibited growth was recorded as the MIC. The results are recorded in Table IV below, where the numbers are quoted in mmol/L.
(§8) Given the positive performance of the ethoxylates of lauryl alcohol in reducing the MIC for a number of the micro-organisms tested, further MIC testing of Laureth-1 [C12E1] through to Laureth-8 [C12E8] was conducted on each of the following: • 10 strains of vancomycin-resistant enterococci (VRE)—listed in Table V below; and • 20 strains of methicillin-resistant Staphylococcus aureus (MRSA)—listed in Table VI.
(§9) The alkanol, alkanol derivatives, agar plates, and inocula were all prepared in the same way as described above.
(§10) The plates were examined in the same manner as described above and the results are recorded in Table VII below, where the numbers are quoted in mmol/L.

[4] = system: MRSA BEL 97598; experiment: MIC agar dilution, MRSA strain 34; conditions: Staphylococcus aureus
Experimental: as §2, §3, §4, §5, §6, §7, §8, §9, §10

[5] = system: MRSA GER 131/98 (Sger Iidc); experiment: MIC agar dilution, MRSA strain 35; conditions: Staphylococcus aureus
Experimental: as §2, §3, §4, §5, §6, §7, §8, §9, §10

[6] = system: MRSA FRA 920; experiment: MIC agar dilution, MRSA strain 38; conditions: Staphylococcus aureus
Experimental: as §2, §3, §4, §5, §6, §7, §8, §9, §10

[7] = system: MRSA EMRSA 15 1729/98; experiment: MIC agar dilution, MRSA strain 42; conditions: Staphylococcus aureus
Experimental: as §2, §3, §4, §5, §6, §7, §8, §9, §10

[8] = system: MRSA EMRSA 15 1758/98; experiment: MIC agar dilution, MRSA strain 43; conditions: Staphylococcus aureus
Experimental: as §2, §3, §4, §5, §6, §7, §8, §9, §10

[9] = system: methicillin-resistant Staphylococcus aureus (MRSA); experiment: MIC agar dilution, summary over 20 MRSA strains; conditions: MRSA bacterial samples, 22 and 48 hour
Experimental: as §8, §9, §10

[10] = system: vancomycin-resistant enterococci (VRE); experiment: MIC agar dilution, summary over 10 VRE strains; conditions: Enterococcus; most, if not all, of the VRE samples
Experimental: as §8, §9, §10

[11] = Staphylococcus aureus, 22 h, 22 hrs
[12] = Staphylococcus aureus, 48 h, 48 hrs

SMILES	MIC [1, 11]	MIC [1, 12]	MIC ([2]; 22 hrs)	MIC ([2]; 48 hrs)	MIC ([3]; 22 hrs)	MIC ([3]; 48 hrs)	MIC ([4]; 22 hrs)	MIC ([4]; 48 hrs)	MIC ([5]; 22 hrs)	MIC ([5]; 48 hrs)	MIC ([6]; 22 hrs)	MIC ([6]; 48 hrs)	MIC ([7]; 22 hrs)	MIC ([7]; 48 hrs)	MIC ([8]; 22 hrs)	MIC ([8]; 48 hrs)	MIC [9]	MIC [10]	MIC ([1]; 22 hrs)	MIC ([1]; 48 hrs)
CCCCCCCCCCCCOCCOCCOCCOCCO [L4, Tetraethylene Glycol Monododecyl Ether]	110 µM (≈ 39.9 µg/mL)	110 µM (≈ 39.9 µg/mL)	110 µM (≈ 39.9 µg/mL)	110 µM (≈ 39.9 µg/mL)	220 µM (≈ 79.8 µg/mL)	220 µM (≈ 79.8 µg/mL)	110 µM (≈ 39.9 µg/mL)	110 µM (≈ 39.9 µg/mL)	110 µM (≈ 39.9 µg/mL)	110 µM (≈ 39.9 µg/mL)	55 µM (≈ 19.9 µg/mL)	55 µM (≈ 19.9 µg/mL)	55 µM (≈ 19.9 µg/mL)	55 µM (≈ 19.9 µg/mL)	55 µM (≈ 19.9 µg/mL)	55 µM (≈ 19.9 µg/mL)	~55 µM (≈ 19.9 µg/mL)	≤ 440 µM		
CCCCCCCCCCCCOCCOCCOCCOCCOCCO [L5, Pentaethylene Glycol Monododecyl Ether]	110 µM (≈ 44.7 µg/mL)	110 µM (≈ 44.7 µg/mL)	110 µM (≈ 44.7 µg/mL)	110 µM (≈ 44.7 µg/mL)	220 µM (≈ 89.5 µg/mL)	220 µM (≈ 89.5 µg/mL)	110 µM (≈ 44.7 µg/mL)	110 µM (≈ 44.7 µg/mL)	110 µM (≈ 44.7 µg/mL)	110 µM (≈ 44.7 µg/mL)	110 µM (≈ 44.7 µg/mL)	110 µM (≈ 44.7 µg/mL)	110 µM (≈ 44.7 µg/mL)	110 µM (≈ 44.7 µg/mL)	110 µM (≈ 44.7 µg/mL)	110 µM (≈ 44.7 µg/mL)		≤ 440 µM		
CCCCCCCCCCCCOCCOCCOCCOCCOCCOCCO [L6, Hexaethylene Glycol Monododecyl Ether]	110 µM (≈ 49.6 µg/mL)	110 µM (≈ 49.6 µg/mL)	110 µM (≈ 49.6 µg/mL)	110 µM (≈ 49.6 µg/mL)	> 880 µM	> 880 µM	220 µM (≈ 99.1 µg/mL)	220 µM (≈ 99.1 µg/mL)	110 µM (≈ 49.6 µg/mL)	110 µM (≈ 49.6 µg/mL)	220 µM (≈ 99.1 µg/mL)	220 µM (≈ 99.1 µg/mL)	110 µM (≈ 49.6 µg/mL)	110 µM (≈ 49.6 µg/mL)	110 µM (≈ 49.6 µg/mL)	110 µM (≈ 49.6 µg/mL)				
CCCCCCCCCCCCOCCOCCOCCOCCOCCOCCOCCO [L7, Heptaethylene Glycol Monododecyl Ether]			110 µM (≈ 54.4 µg/mL)	110 µM (≈ 54.4 µg/mL)	> 880 µM	> 880 µM	> 440 µM	> 440 µM	110 µM (≈ 54.4 µg/mL)	220 µM (≈ 109 µg/mL)	220 µM (≈ 109 µg/mL)	440 µM (≈ 218 µg/mL)	440 µM (≈ 218 µg/mL)	440 µM (≈ 218 µg/mL)	220 µM (≈ 109 µg/mL)	220 µM (≈ 109 µg/mL)	~440 µM (≈ 218 µg/mL)		110 µM (≈ 54.4 µg/mL)	110 µM (≈ 54.4 µg/mL)
CCCCCCCCCCCCOCCOCCOCCOCCOCCOCCOCCOCCO [L8, Octaethylene Glycol Monododecyl Ether]	110 µM (≈ 59.3 µg/mL)	110 µM (≈ 59.3 µg/mL)	110 µM (≈ 59.3 µg/mL)	110 µM (≈ 59.3 µg/mL)	> 880 µM	> 880 µM	> 440 µM	> 440 µM	440 µM (≈ 237 µg/mL)	> 440 µM	> 440 µM	> 440 µM	> 440 µM	> 440 µM	> 440 µM	> 440 µM	~440 µM (≈ 237 µg/mL)			
